According to ChEMBL document CHEMBL3430912, “GSK Tres Cantos Anti-Kinetoplastid Screening (TCAKS) Data”:

Key:
[1] = system: Trypanosoma cruzi; assay: GSK_TCAKS: pIC50 Trypanosoma cruzi viability assay using beta-GAL activity. This assay was run at single shot at 5uM compound concentration per well. The biological reagents consisted of NIH-3T3 host cells and trypomastigotes parasitic cells; both cell types were set to a 3.3 * 10^5 cells/mL dilution in assay DMEM by means of a CASY cell counter device using a 60um capillary. 6 uL of the mixture were dispensed per well (about 1 * 10^3 host-cells and 1 * 10^3 parasites) with a Multidrop Combi dispenser. […] In all wells, the percentage of DMSO never exceeded 0.5%. Plates incubated for four days at 37C, 5% CO2. The substrate used for the assay fluorescence intensity (FLINT) readout was resorufin-beta-D-galactopiranoside (Sigma-Aldrich) at 5uM per well. It was diluted in PBS supplemented with the soft detergent Igepal (Fluka).; assay type: functional, organism-based, Mus musculus; details: Tulahuen, NIH3T3
[2] = system: Trypanosoma cruzi; assay: (§1) GSK_TCAKS: pIC50 Trypanosoma cruzi Imaging: Infected Cells. […] Cells were then washed once with PBS before infection. T. cruzi trypomastigotes, collected at days 5 to 8 after infection from LLC-MK2 parasite infected cultures, were allowed to swim out for 4h at 37C from a centrifuged pellet (2,500 rpm/10 min/room temperature). Trypomastigotes were then collected and counted in a CASY Cell Counter. Trypomastigotes, in supplemented DMEM, were added to H9c2 cultures in a multiplicity of infection of 1 and incubated for 18 h. Cells were washed once with PBS before incubation of the infected H9c2 monolayer with trypsin (Life-Technologies) to detach cells from the flask. Cells were counted in a CASY Cell Counter using a 150 um capillary and their density set at 5 * 10^4 cells per mL in supplemented assay DMEM. Infected H9c2 were dispensed into 384-well poly-lysine coated assay plates at 50uL per well using a Multidrop Combi dispenser. After seeding them, the plates were incubated at 37C, 5% CO2 for 72h. Cultures were then fixed and stained by addition of 50 uL of a solution containing 8% formaldehyde and 4 uM DRAQ5 DNA dye (BioStatus, UK) per well. […] Five images were collected per well for reliable statistical analysis. Automated image analysis was performed with a script developed on Acapella High Content Imaging and Analysis Software (PerkinElmer). Output: percentage of infected cells per well as a second infection marker.; assay type: functional, organism-based, Rattus norvegicus; details: H9c2, 4 h
[3] = system: Trypanosoma cruzi; assay: GSK_TCAKS: pIC50 Trypanosoma cruzi Imaging: Amastigotes/Cell. […] Cells were then washed once with PBS before infection. T. cruzi trypomastigotes, collected at days 5 to 8 after infection from LLC-MK2 parasite infected cultures, were allowed to swim out for 4h at 37C from a centrifuged pellet (2,500 rpm/10 min/room temperature). Trypomastigotes were then collected and counted in a CASY Cell Counter. Trypomastigotes, in supplemented DMEM, were added to H9c2 cultures in a multiplicity of infection of 1 and incubated for 18 h. Cells were washed once with PBS before incubation of the infected H9c2 monolayer with trypsin (Life-Technologies) to detach cells from the flask. Cells were counted in a CASY Cell Counter using a 150 um capillary and their density set at 5 * 10^4 cells per mL in supplemented assay DMEM. Infected H9c2 were dispensed into 384-well poly-lysine coated assay plates at 50uL per well using a Multidrop Combi dispenser. After seeding them, the plates were incubated at 37C, 5% CO2 for 72h. Cultures were then fixed and stained by addition of 50 uL of a solution containing 8% formaldehyde and 4 uM DRAQ5 DNA dye (BioStatus, UK) per well. […] Five images were collected per well for reliable statistical analysis. Automated image analysis was performed with a script developed on Acapella High Content Imaging and Analysis Software (PerkinElmer). Output: number of amastigotes per cell as infection level measurement.; assay type: functional, organism-based, Rattus norvegicus; details: H9c2, 4 h
[4] = system: Trypanosoma cruzi; assay: as §1, with “H2C9” for “Trypanosoma cruzi”, “H9c2 Host Cardiomyocytes.” for “Infected Cells.”, “Number” for “percentage”, “H9c2 Host Cardiomyocytes nuclei to determine drug-related cytotoxicity.” for “infected cells per well as a second infection marker.”; assay type: functional, organism-based, Rattus norvegicus; details: H9c2, 4 h
[5] = system: Leishmania donovani; assay: GSK_TCAKS: pIC50 Leishmania donovani viability assay using fluorescence intensity. Assay plates (1536-well) were prepared by adding 30nL per well of compound. For single shot assay, the final compound concentration was 5uM. […] Briefly, eGFP LdBOB axenic amastigotes were harvested, fixed and counted in a CASY cell counter (Roche-Applied Science). A final concentration of 1.5 * 10^5 cells per well were prepared in amastigote media containing 500 U/mL penicillin/streptomycin (Invitrogen) and 6uL was dispensed to each experimental well using a Multidrop Combi dispenser (Thermo Scientific). 6uL of assay media was dispensed to control columns used as reference for 100% compound response. Following incubation for 72 h at 37C, 5% CO2, 2 uL of resazurin was added to each well at a final concentration of 0.5 mM in phosphate buffered saline (PBS) with IGEPAL (Sigma-Aldrich), 0.05% (v/v).; assay type: functional, organism-based
[6] = system: Leishmania donovani; assay: (§2) GSK_TCAKS: pIC50 Leishmania donovani Imaging: Infected Macrophages. Assay plates (384-well) were prepared by adding 250nL of compound to each well. For single shot assay, the final compound concentration was 5 uM. […] Automated image analysis was performed with a script developed on Acapella High Content Imaging and Analysis Software (PerkinElmer). Output: Percent of infected macrophage cells were reported for each well.; assay type: functional, organism-based, Homo sapiens; details: THP-1
[7] = system: Leishmania donovani; assay: as §2, with “Amastigotes/Macrophages.” for “Infected Macrophages.”, “Average number” for “Percent”, “amastigotes per” for “infected”, “cell” for “cells”; assay type: functional, organism-based, Homo sapiens; details: THP-1
[8] = system: Leishmania donovani; assay: as §2, with “THP-1 Host” for “Infected”, “THP-1 cell count” for “Percent of infected macrophage cells”; assay type: functional, organism-based, Homo sapiens
[9] = system: Trypanosoma brucei brucei; assay: GSK_TCAKS: pIC50 Trypanosoma brucei viability assay using fluorescence intensity. Assay plates (1536-well) were prepared by dispensing 25nL of compound solution per well using an Echo acoustic dispenser (Labcyte).; assay type: functional, organism-based; details: Lister 427, 2 h
[10] = system: Trypanosoma brucei brucei; assay: GSK_TCAKS: pIC50 Trypanosoma brucei viability assay using luminiscence. Assay plates (1536-well) were prepared. T. brucei cultures were harvested and counted in a CASY cell counter. A parasite suspension was prepared at a final concentration of 5 * 10^4 cells/mL in complete HMI9 medium and 6uL was dispensed to all wells containing compounds using a Multidrop Combi dispenser. 6uL of HMI9 media with 0.4% DMSO were dispensed to control columns. Plates were incubated for 24 h at 37C, 5% CO2 then tempered for 10 min at room temperature. ATP content was quantified by adding 4 uL of CellTiter-Glo Reagent (Promega) according to the manufacturer's instructions. Luminescence was measured using a ViewLux.; assay type: functional, organism-based; details: Lister 427, CASY
[11] = GSK_TCAKS: pIC50 HepG2 human cell line viability assay using luminiscence. […] Seeding density was checked to ensure that new mono-layers were not more than 50% confluent at the time of harvesting. Cell suspension was added to 500 mL of the same medium at a final density of 1.2 * 10^5 cells/mL. This cell suspension was dispensed (25 uL, 3000 cells per well) into 384-well clear-bottom plates using a Multidrop Combi dispenser. Prior to addition of the cell suspension, the screening compounds (250 nL) were pre-dispensed into the plates with an Echo liquid handler. Plates were incubated for 48 h at 37C, 5% CO2. After incubation, plates equilibrated at room temperature for 30 min before proceeding to develop the luminescent signal. The signal developer, CellTiter-Glo Reagent, was allowed to equilibrate at room temperature for 30 min and added to the plates (25uL per well) using a Multidrop Combi dispenser. Plates were left for 10 min at room temperature for stabilization and then read using a ViewLux.; assay type: toxicity, cell-based
[12] = molecular target: Sterol 14-alpha demethylase (Trypanosoma cruzi (strain CL Brener), UniProt Q7Z1V1); assay: GSK_TCAKS: pIC50 CYP51 from Trypanosoma cruzi.; assay type: functional
Chain of Sterol 14-alpha demethylase (Q7Z1V1 whole entry): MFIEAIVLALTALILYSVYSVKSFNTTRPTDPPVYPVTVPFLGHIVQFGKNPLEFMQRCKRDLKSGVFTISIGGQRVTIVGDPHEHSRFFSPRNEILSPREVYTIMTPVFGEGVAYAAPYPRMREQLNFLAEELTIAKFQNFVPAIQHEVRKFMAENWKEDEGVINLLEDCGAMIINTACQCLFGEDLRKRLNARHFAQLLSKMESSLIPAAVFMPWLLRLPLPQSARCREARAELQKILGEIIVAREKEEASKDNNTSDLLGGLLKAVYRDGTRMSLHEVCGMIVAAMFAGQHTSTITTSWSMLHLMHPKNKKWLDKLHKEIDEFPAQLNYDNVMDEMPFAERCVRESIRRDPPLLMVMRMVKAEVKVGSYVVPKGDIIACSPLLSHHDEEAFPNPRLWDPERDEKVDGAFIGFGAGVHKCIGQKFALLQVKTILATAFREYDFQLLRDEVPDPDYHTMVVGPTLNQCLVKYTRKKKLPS

CN(C)Cc1cccc(Nc2nccc(-c3ccc(NCCN)c(C#N)c3)n2)c1
IC50 [1]: 1 µM | IC50 [2]: 10 µM | IC50 [3]: 1.58 µM | IC50 [4]: 2 µM | IC50 [5]: 2.51 µM | IC50 [6]: 1.26 µM | IC50 [7]: 0.501 µM | IC50 [8]: 6.31 µM | IC50 [9]: 0.0501 µM | IC50 [10]: 0.2 µM | IC50 at 48 h [11]: 25.1 µM | IC50 [12]: 6.31 µM

O=C(CC1(O)C(=O)N(Cc2cccs2)c2ccc(Br)cc21)c1cccnc1 (configuration not stated)
IC50 [1]: 5.01 µM | IC50 [2]: 39.8 µM | IC50 [3]: 25.1 µM | IC50 [4]: 3.98 µM | IC50 [5]: > 50.1 µM | IC50 [6]: > 50.1 µM | IC50 [7]: > 50.1 µM | IC50 [8]: 20 µM | IC50 [9]: 0.631 µM | IC50 [10]: 0.794 µM | IC50 at 48 h [11]: 63.1 µM | IC50 [12]: 12.6 µM

COc1cnc2ccc(=O)n(CCN3CCC(NC/C=C/c4cc(F)ccc4F)CC3)c2c1
IC50 [1]: 0.0158 µM | IC50 [2]: 0.02 µM | IC50 [3]: 0.01 µM | IC50 [4]: 15.8 µM | IC50 [5]: 5.01 µM | IC50 [6]: 5.01 µM | IC50 [7]: 2 µM | IC50 [8]: 39.8 µM | IC50 [9]: 0.398 µM | IC50 [10]: 0.794 µM | IC50 at 48 h [11]: 63.1 µM | IC50 [12]: 15.8 µM

Cc1cc2cc(CNc3ccc4c(c3)OCO4)c(=O)n(CCO)c2cc1C
IC50 [1]: 0.631 µM | IC50 [2]: 0.251 µM | IC50 [3]: 0.2 µM | IC50 [4]: > 50.1 µM | IC50 [5]: 6.31 µM | IC50 [6]: 0.501 µM | IC50 [7]: 0.251 µM | IC50 [8]: 39.8 µM | IC50 [9]: 25.1 µM | IC50 [10]: > 39.8 µM | IC50 at 48 h [11]: > 100 µM | IC50 [12]: 10 µM

Cc1nn2c(=O)c3c([nH]c2c1-c1ccc(Br)cc1)CCCC3
IC50 [1]: 1 µM | IC50 [2]: 1.58 µM | IC50 [3]: 0.794 µM | IC50 [4]: > 50.1 µM | IC50 [5]: 10 µM | IC50 [6]: > 50.1 µM | IC50 [7]: 39.8 µM | IC50 [8]: > 50.1 µM | IC50 [9]: 0.398 µM | IC50 [10]: 0.794 µM | IC50 at 48 h [11]: > 100 µM | IC50 [12]: > 100 µM

COc1ccc(C(=O)NC2CCN(CCn3c(=O)ccc4ncc(F)cc43)CC2)cc1Cl
IC50 [1]: 0.501 µM | IC50 [2]: 0.631 µM | IC50 [3]: 0.316 µM | IC50 [4]: > 50.1 µM | IC50 [5]: 3.98 µM | IC50 [6]: > 50.1 µM | IC50 [7]: 15.8 µM | IC50 [8]: > 50.1 µM | IC50 [9]: 0.126 µM | IC50 [10]: 0.251 µM | IC50 at 48 h [11]: > 100 µM | IC50 [12]: 15.8 µM

c1ccc2[nH]c(-c3ccc(N4CCCC4)nc3)nc2c1
IC50 [1]: 1 µM | IC50 [2]: 1.58 µM | IC50 [3]: 1 µM | IC50 [4]: > 50.1 µM | IC50 [5]: 5.01 µM | IC50 [6]: > 50.1 µM | IC50 [7]: > 50.1 µM | IC50 [8]: 31.6 µM | IC50 [9]: 0.794 µM | IC50 [10]: 1 µM | IC50 at 48 h [11]: > 100 µM | IC50 [12]: > 100 µM

CC(c1ccc2c(c1)CCCC2)N(C)c1ncc2c(N)nc(N)nc2n1 (configuration not stated)
IC50 [1]: 0.0316 µM | IC50 [2]: 0.0316 µM | IC50 [3]: 0.01 µM | IC50 [4]: 10 µM | IC50 [5]: 2.51 µM | IC50 [6]: 2 µM | IC50 [7]: 0.794 µM | IC50 [8]: 25.1 µM | IC50 [9]: 15.8 µM | IC50 [10]: 12.6 µM | IC50 at 48 h [11]: 50.1 µM | IC50 [12]: 25.1 µM

CC(c1cc(Cl)cc(Cl)c1)N(C)c1ncc2c(N)nc(N)nc2n1 (configuration not stated)
IC50 [1]: 0.0631 µM | IC50 [2]: 0.002 µM | IC50 [3]: 0.001 µM | IC50 [4]: 7.94 µM | IC50 [5]: 0.794 µM | IC50 [6]: 0.794 µM | IC50 [7]: 0.251 µM | IC50 [8]: 31.6 µM | IC50 [9]: > 39.8 µM | IC50 [10]: 31.6 µM | IC50 at 48 h [11]: 63.1 µM | IC50 [12]: 39.8 µM

COc1ccnc2[nH]cc(-c3cc(C(=O)N[C@H](CO)c4ccccc4)co3)c12
IC50 [1]: 1.26 µM | IC50 [2]: 20 µM | IC50 [3]: 7.94 µM | IC50 [4]: 0.316 µM | IC50 [5]: 25.1 µM | IC50 [6]: 7.94 µM | IC50 [7]: 2 µM | IC50 [8]: 0.794 µM | IC50 [9]: 0.00501 µM | IC50 [10]: 0.0126 µM | IC50 at 48 h [11]: 15.8 µM | IC50 [12]: 0.794 µM

COc1ccc(-c2cnc(NC(=O)c3cc(-c4ccccn4)n[nH]3)n2C)cc1
IC50 [1]: 3.55 µM | IC50 [2]: 5.01 µM | IC50 [3]: 3.98 µM | IC50 [4]: > 50.1 µM | IC50 [5]: 3.98 µM | IC50 [6]: 1 µM | IC50 [7]: 0.794 µM | IC50 [8]: > 50.1 µM | IC50 [9]: 0.398 µM | IC50 [10]: 10 µM | IC50 at 48 h [11]: > 100 µM | IC50 [12]: 15.8 µM
